{"source": "patent US7858738B2", "about": "“Synthetic human peptides and pharmaceutical compositions comprising them for the treatment of systemic lupus erythematosus” (Yeda Research and Development Co., Ltd., priority 2001, dated 2010)", "key": {"BALB/c-derived LNC": {"test_system": "BALB/c-derived LNC", "experiment": "In vivo inhibition of proliferation of BALB/c LNC to the human 16/6Id mAb", "set-up": "species or system mice", "method": "Because our aim was to test the inhibitory capacity of the peptides based on the CDR of the human 16/6Id autoantibody, it was of importance to find out whether peptides hCDR1 and hCDR3 are capable of inhibiting the priming to the whole molecule of the human 16/6Id mAb. To this end, BALB/c and SJL mice were primed with the human 16/6Id mAb (2 μg/mouse) in CFA intradermally in the hind footpads. […] Ten days following immunization, the mice were sacrificed and their LNCs were tested in vitro for their ability to proliferate to different concentrations (0.1-10 μg/well) of the human anti-DNA 16/6Id mAb.\nThe results are presented as maximum % inhibition of the proliferation to the immunizing human 16/6Id mAb of lymph node cells of mice immunized and treated with the peptides hCDR1 and hCDR3 as compared with mice that were immunized with the 16/6Id mAb but were not treated with the peptides.\nIn another experiment, BALB/c mice were immunized with 1 μg human 16/6Id in CFA, intradermally in the hind footpads, and either were injected with hCDR1 s.c., 300 μg/mouse in PBS, or were not further treated. Ten days later the mice were sacrificed and their LNC were tested for their ability to proliferate in vitro to the human 16/6Id. Thus, popliteal LNCs (0.5×10^6) were incubated in the presence of various concentrations (0.1-10 μg/well) of the human anti-DNA 16/6Id mAb. At the end of 4 days incubation, ^3H-thymidine was added to the cultures for the last 18 hours of incubation. Cells were then harvested and radioactivity counted."}, "MMP-3": {"test_system": "MMP-3", "experiment": "MMP-3 levels in sera of (NZB×NZW)F1 mice (Western blot)", "type": "in vivo", "settings": "300 μg s.c. once a week from age 7 months; sera after 5 injections; FIG. 23", "method": "Induction and treatment of experimental SLE. In order to induce experimental SLE, BALB/c mice were immunized with 1-2 μg of the human mAb 16/6Id and boosted 3 weeks later. For the prevention of experimental SLE, mice were given hCDR1 or hCDR3 (mCDR1 or revmCDR1 as control peptide in Example 12) intravenously (i.v.) or s.c. concomitant with the immunization, and were injected weekly thereafter for 5 weeks. Treatment of an established disease started three and a half months following disease induction with the 16/6Id, when clinical manifestations were already observed. In Example 12, mice received 10 weekly injections (i.v. or s.c.) of mCDR1 or revmCDR1 at a dose of 100 μg/mouse. Prevention and treatment of SLE-like disease in (NZB×NZW)F1 mice with the hCDR1 or mCDR1 peptide. For prevention of SLE, mice at the age of 2 months, before disease manifestations are observed, were injected s.c. with hCDR1 (or mCDR1 in Example 12, 250 μg/mouse) once a week for 10 weeks. To treat an established disease, mice at the age of 5-7 months were injected with hCDR1 (in Example 12, mCDR1 s.c., 250 μg/mouse) once a week for 10 weeks. Proliferative Responses. PBL were isolated from heparinized venous blood by Ficoll-Hypaque (Pharmacia) density-gradient centrifugation. […] Results are expressed as the mean thymidine incorporation in counts per minute (CPM) of triplicate culture±SD, or as stimulation index (S.I.; the ratio of mean CPM at the optimal concentration of the human 16/6Id to the mean CPM in the presence of medium alone). […] TGF-β was determined by an ELISA. […] The substrate solution used was TMB color Reagent (Helix Diagnostics, West Sacramento, Calif.), and enzyme activity was evaluated by using 570- and 630-nm filters. […] Proteinuria was measured semiquantitatively by using Combistix kit (Ames Division, Bayer Diagnostics, Newbury, U.K.). White blood cells (WBC, for leukopenia) were counted after a 10-fold dilution of heparinized blood in distilled water containing 1% acetic acid (vol/vol). […]"}}, "data": [{"sequence": "GYYWSWIRQPPGKGEEWIG (Human) [hCDR1, 19-mer peptide based on the CDR1 of the heavy chain of the human 16/6Id mAb]", "values": [{"measurement": "% inhibition of proliferation", "setting": "BALB/c-derived LNC; 50 μg/mouse s.c. in PBS, 16/6Id mAb 0.1 μg/well", "result": 98, "unit": "%"}, {"measurement": "% inhibition of proliferation", "setting": "BALB/c-derived LNC; 50 μg/mouse s.c. in PBS, 16/6Id mAb 5 μg/well", "result": 73, "unit": "%"}, {"measurement": "% inhibition of proliferation", "setting": "BALB/c-derived LNC; 50 μg/mouse s.c. in PBS, 16/6Id mAb 10 μg/well", "result": 64, "unit": "%"}, {"measurement": "% inhibition of proliferation", "setting": "BALB/c-derived LNC; 300 μg/mouse s.c. in PBS, 16/6Id mAb 0.1 μg/well", "result": 47, "unit": "%"}, {"measurement": "% inhibition of proliferation", "setting": "BALB/c-derived LNC; 300 μg/mouse s.c. in PBS, 16/6Id mAb 1 μg/well", "result": 66, "unit": "%"}, {"measurement": "% inhibition of proliferation", "setting": "BALB/c-derived LNC; 300 μg/mouse s.c. in PBS, 16/6Id mAb 5 μg/well", "result": 76, "unit": "%"}, {"measurement": "% inhibition of proliferation", "setting": "BALB/c-derived LNC; 300 μg/mouse s.c. in PBS, 16/6Id mAb 10 μg/well", "result": 62, "unit": "%"}, {"measurement": "% Inhibition of the proliferation of BALB/c-derived LNC to the human 16/6Id mAb", "setting": "BALB/c-derived LNC; maximum % inhibition, 200 μg/mouse s.c. in PBS concomitant with priming", "result": 88, "unit": "%"}, {"measurement": "levels of MMP-3 in pooled sera", "setting": "MMP-3", "result": "down regulated"}]}]}
